“Also recorded” adds a separate entry of the source.
Columns and labels:
[1] = target: HLA-DR15 (DRB1*15:01) heterodimer (Homo sapiens, UniProt P01903+P01911); experiment: biochemical; format: binding
[2] = target: HLA-DR3 (DRB1*03:01) heterodimer (Homo sapiens, UniProt P01903+P01911, A100K/A102G/A103R/A169T/F55Y/I96L/K41T/L162R/M171V/P40S/Q125H/Q178H/Q39Y/R42S/S66N/T106N/T262R/W38E/Y61H); experiment: biochemical
[3] = test system: draining lymph node cells of HLA-DQ8 (DQB1*0302) transgenic mice; format: cell-based, mouse; conditions: n = 6
[4] = test system: splenocytes of ZIKV (PF13/251013-18) infected AG129 mice; format: cell-based, mouse; conditions: n = 5
[5] = test system: draining lymph node cells of HLA-DR1501 (DRB1*1501) transgenic mice; format: cell-based, mouse; conditions: primed with 25 μg recombinant ZIKV Env; day 10 DLN cells; positive if > 2 SD above mean without antigen; n = 6; Fig. 2B
[6] = test system: draining lymph node cells of HLA-DR1 (DRB1*0101) transgenic mice; format: cell-based, mouse; conditions: n = 6

Sequence of HLA-DR3 (DRB1*03:01) heterodimer (P01903 26-254 limits assumed, other chains not shown): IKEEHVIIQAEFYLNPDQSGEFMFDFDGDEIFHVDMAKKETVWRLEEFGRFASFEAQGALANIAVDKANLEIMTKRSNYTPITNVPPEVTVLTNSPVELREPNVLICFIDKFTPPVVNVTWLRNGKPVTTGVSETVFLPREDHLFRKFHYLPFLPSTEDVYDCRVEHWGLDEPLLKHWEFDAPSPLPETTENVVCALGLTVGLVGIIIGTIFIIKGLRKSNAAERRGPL

Compound: CC(C)C[C@H](NC(=O)[C@H](Cc1ccc(O)cc1)NC(=O)[C@H](C)NC(=O)[C@H](CCCNC(=N)N)NC(=O)[C@H](CC(C)C)NC(=O)[C@H](CCC(N)=O)NC(=O)[C@H](CCC(=O)O)NC(=O)[C@H](C)NC(=O)[C@@H](N)CCC(=O)O)C(=O)N[C@@H](CC(=O)O)C(=O)NCC(=O)N[C@H](C(=O)NCC(=O)N[C@H](C(=O)N[C@@H](CCC(=O)O)C(=O)O)C(C)C)[C@@H](C)O [A3 152–166]
- IC50 [1]: 40 nM

Compound: CC[C@H](C)[C@H](NC(=O)[C@@H](NC(=O)[C@H](CCCCN)NC(=O)[C@H](C)NC(=O)[C@H](C)N)[C@@H](C)O)C(=O)N[C@@H](C)C(=O)N[C@@H](Cc1ccc(O)cc1)C(=O)N[C@@H](CC(=O)O)C(=O)N[C@@H](CCC(=O)O)C(=O)N[C@@H](CCC(=O)O)C(=O)N[C@@H](C)C(=O)N[C@@H](CCCNC(=N)N)C(=O)N[C@@H](CCCNC(=N)N)C(=O)NCC(=O)N[C@@H](CC(C)C)C(=O)N[C@@H](CCC(=O)O)C(=O)O [MT2-16]
- IC50 [2]: 50 nM

Compound: FNCLGMSNRDFLEGVSGATW [WNV P1]
- IFNγ ELISpot response of ZIKV Env primed T cells to peptide (in words), HLA-DQ8 [3]: significant responses
- IFNγ ELISpot response of splenic cells to peptide [4]: Strong responses; also recorded: of similar magnitude to the ZIKV p1 response
- IFNγ ELISpot response of ZIKV Env primed T cells to peptide (in words), HLA-DR1501 [5]: cross-reactive responses
- IFNγ ELISpot response of ZIKV Env primed T cells to peptide (in words), HLA-DR1 [6]: significant responses

Compound: KAACPTMGEAHNDKRADPAF [WNV P8, WNV Env variant of ZIKV Env peptide 8]
- IFNγ ELISpot response of ZIKV Env primed T cells to peptide (in words), HLA-DQ8 [3]: cross-reactive epitope recognition
